# In publication PMC6661766, “Antimicrobial, antioxidant and cytotoxic evaluation of diazenyl chalcones along with insights to mechanism of interaction by molecular docking studies” (BMC Chemistry, 2019):
# Where two headings read alike, the source gives them in different places.
# How the values were obtained:
# B. cereus = experiment: Antimicrobial serial tube dilution, MIC and MBC; format: cell-based, Bacillus cereus MTCC 1305; details: Bacillus cereus; for MIC: 24 h, read-out: B. cereus MIC; for MBC: read-out: B. cereus MBC
# Procedure: (§1) The synthesized diazenyl chalcones (C18 to C27) and controls (dyes A and E, and chalcone) were assessed for their antimicrobial activity by estimation of MIC and MBC/MFC values. […] The stock solutions of the test compounds and standard drugs having a concentration of 1000 µg ml^−1 were prepared by dissolving the used compounds in DMSO. The nutrient broth/Sabouraud dextrose broth was used for the serial dilution of the test compounds and referenced drugs for bacterial and fungal cultures, respectively. […] The size of the final inoculum in each test tube was taken as 5 × 10^5 CFU ml^−1. The incubation of the test and standard compounds of varying concentrations was done for 24 h at 37 ± 2 °C (bacterial culture) and for 48 h at 37 ± 2 °C (C. albicans) and for 7 d at 25 ± 2 °C (A. fumigatus). The diazenyl chalcones (C18–C27), were further evaluated for their bactericidal/fungicidal activity by estimation of MBC/MFC values. […] For proper mixing of culture media, the plates were shaken gently followed by incubation at the predefined temperature and time as stated earlier, followed by the visual inspection of the plates for signs of microbial growth.
# S. typhi = experiment: Antimicrobial serial tube dilution, MIC and MBC; format: cell-based, Salmonella typhi MTCC 3216; details: Salmonella enterica, TYPHI; for MIC: 24 h, read-out: S. typhi MIC; for MBC: read-out: S. typhi MBC
# Procedure: as §1
# E. coli = experiment: Antimicrobial serial tube dilution, MIC and MBC; format: cell-based, Escherichia coli MTCC 1652; details: for MIC / MBC: Escherichia coli; for MIC: 24 h, read-out: E. coli MIC, 24 h at 37 ± 2 °C; for MBC: read-out: E. coli MBC
# Procedure: as §1
# S. aureus = experiment: Antimicrobial serial tube dilution, MIC and MBC; format: cell-based, Staphylococcus aureus MTCC 2901; details: Staphylococcus aureus; for MIC: 24 h, read-out: S. aureus MIC; for MBC: read-out: S. aureus MBC
# Procedure: as §1
# B. subtilis = experiment: Antimicrobial serial tube dilution, MIC and MBC; format: cell-based, Bacillus subtilis MTCC 2063; details: Bacillus subtilis; for MIC: 24 h, read-out: B. subtilis MIC; for MBC: read-out: B. subtilis MBC
# Procedure: as §1
# C. albicans = experiment: Antimicrobial serial tube dilution, MIC and MFC; format: cell-based, Candida albicans MTCC 227
# Procedure: as §1
# A. fumigatus = experiment: Antimicrobial serial tube dilution, MIC and MFC; format: cell-based, Aspergillus fumigatus MTCC 2584
# Procedure: as §1
# [1] = DPPH scavenging antioxidant assay
# Procedure: The derivatives (C18–C27) were assessed for their antioxidant potential in the presence of the stable free radical DPPH using ascorbic acid as the standard compound [36, 37]. […] The total volume of 200 µl was used in each well for each concentration of the test and standard drug containing 0.004 µg DPPH. The assay was performed in triplicate at all concentrations of each sample and standard compound. DPPH solutions in methanol at the same concentration without test drugs were used as the control. Each concentration of the sample and standard has a different blank. To minimize evaporation, the plate was covered with the lid and wrapped in aluminium foil and kept in the dark place in order to protect the DPPH radical from degradation by light and left for 30 min. After 30 min of incubation, the plate was kept in ELISA reader to measure the absorbance values at 517 nm. The experiment was performed in triplicate. The antioxidant activity of each sample was then calculated as per cent inhibition of DPPH according to the following equation: %decolourationofDPPH=ControlAbs-SampleAbs×100/ControlAbs
# [2] = system: A549 human lung cancer cell line; experiment: MTT cytotoxicity assay, A549; format: cell-based; details: Homo sapiens, A549; MTT, 48 h
# Procedure: (§2) The cell lines employed in the investigation were purchased from the National Centre for Cell Sciences (NCCS), Pune, India. The cell lines were cultured in DMEM fortified with 10% FBS, L-glutamine, sodium bicarbonate, and solution of antibiotics (streptomycin 100 μg ml^−1 + penicillin-100 U ml^−1). The culture of cell lines was stored under 5% CO2 incubation at 37 °C.
# (§3) The compounds showing maximum activity (antimicrobial and antioxidant potential) were screened for cytotoxicity against A549 and HEK cell lines using MTT assay. Initially, 96-well microculture plate was seeded with 1 × 10^4 cells in 100 µl/well DMEM/MEM, supplemented with 10% FBS followed by incubation at a temperature of 37 °C for a period of 24 h under 5% CO2 atmosphere. After that, the test compounds and camptothecin were added to the cells to achieve a concentration of 10, 25, 50 and 100 µg. MTT reagent (10 µl) of concentration of 5 mg ml^−1 added to all the wells after the duration of 48 h. The plate was incubated further for 4 h followed by careful removal of supernatant from each well. To dissolve the formazan crystals, 100 µl of DMSO was added, and the ELISA reader was used to check the absorbance at 570 nm wavelength. In order to calculate the IC50 concentration, the following equation, i.e. A = Bx + C, was used. In this case, A = 50, while the values B and C values were obtained from the survival curve plot. This study was carried out in duplicate.
# [3] = system: HEK human embryonic kidney cells; experiment: MTT cytotoxicity assay, HEK; format: cell-based; details: 48 h
# Procedure: as §2, §3
# tested bacterial strains = experiment: Antimicrobial serial tube dilution, ranges over several bacterial strains; format: cell-based
# Procedure: as §1
# fungal strains = experiment: Antimicrobial serial tube dilution, ranges over fungal strains; format: cell-based; details: read-out: IC50 against fungal strains
# Procedure: as §1
# [4] = system: HEK human embryonic kidney cells; design: method as in PMID 27302903; details: cited from earlier work
# [5] = Candida albicans, 48 h, read-out: C. albicans MIC
# [6] = Candida albicans, read-out: C. albicans MFC
# [7] = Aspergillus fumigatus, 168 h, read-out: A. fumigatus MIC
# [8] = Aspergillus fumigatus, read-out: A. fumigatus MFC
# [9] = B. cereus, S. typhi and S. aureus
SMILES,MIC (B. cereus) [µg/mL],MBC (B. cereus) [µg/mL],MIC (S. typhi) [µg/mL],MBC (S. typhi) [µg/mL],MIC (E. coli) [µg/mL],MBC (E. coli) [µg/mL],MIC (S. aureus) [µg/mL],MBC (S. aureus) [µg/mL],MIC (B. subtilis) [µg/mL],MBC (B. subtilis) [µg/mL],MIC (C. albicans; [5]) [µg/mL],MFC (C. albicans; [6]) [µg/mL],MIC (A. fumigatus; [7]) [µg/mL],MFC (A. fumigatus; [8]) [µg/mL],IC50 DPPH [1] [µg/mL],% inhibition of DPPH ([1]; 1.56 µg ml^−1) [%],% inhibition of DPPH ([1]; 3.12 µg ml^−1) [%],% inhibition of DPPH ([1]; 6.25 µg ml^−1) [%],% inhibition of DPPH ([1]; 12.5 µg ml^−1) [%],IC50 [2] [µg/mL],also measured
"O=C(/C=C\c1cc(Br)ccc1O)c1ccc(N=Nc2ccc([N+](=O)[O-])cc2Cl)c(O)c1 [Compound C-22, (2Z)-3-(5-Bromo-2-hydroxyphenyl)-1-(4-((2-chloro-4-nitrophenyl)diazenyl)-3-hydroxyphenyl) prop-2-en-1-one]",3.9,3.9,3.9,7.81,1.95,7.81,3.9,31.2,1.95,7.81,31.2,31.2,62.5,125,> 100,8.25,9.26,10.25,11.79,156.4 ± 1.23,% inhibition of DPPH ([1]; 25 µg ml^−1): 14.15%; % inhibition of DPPH ([1]; 50 µg ml^−1): 16.34%; % inhibition of DPPH ([1]; 100 µg ml^−1): 23.27%; IC50 [3]: 296.4 ± 2.32 µg/mL; MBC range (tested bacterial strains; over tested bacterial strains): 3.90 to 7.81 µg/mL; MIC range (tested bacterial strains; over tested bacterial strains): 1.95 to 3.90 µg/mL; melting point: 160 to 162 °C
"O=C(/C=C\c1ccco1)c1ccc(N=Nc2c(O)cccc2O)cc1 [Compound C-24, (2Z)-1-(4-((2,6-Dihydroxyphenyl)diazenyl)phenyl)-3-(furan-2-yl)prop-2-en-1-one]",15.6,15.6,7.58,15.6,7.81 to 15.6,31.2,15.6,15.6,31.2,62.5,62.5,125,125,125,15.88,24.16,26.13,34.65,54.71,109 ± 3.21,E. coli MIC (E. coli; 24 h at 37 ± 2 °C): 15.62 µg/mL; % inhibition of DPPH ([1]; 25 µg ml^−1): 77.38%; % inhibition of DPPH ([1]; 50 µg ml^−1): 96.46%; % inhibition of DPPH ([1]; 100 µg ml^−1): 99.17%; log IC50 DPPH ([1]; Fig. 1): 1.201; IC50 [3]: 280.4 ± 1.21 µg/mL; MBC range (tested bacterial strains; [9]): 15.62 to 31.25 µg/mL; MIC range (tested bacterial strains; [9]): 7.81 to 15.62 µg/mL; melting point: 315 to 317 °C
"OC(Cn1cncn1)(Cn1cncn1)c1ccc(F)cc1F [Fluconazole, fluconazole, reference compound]",–,–,–,–,–,–,–,–,–,–,–,–,–,–,–,–,–,–,–,–,"MIC (C. albicans; Candida albicans; 48 h at 37 ± 2 °C; read-out: C. albicans MIC): 7.81 µg/mL; MFC (C. albicans; Candida albicans; read-out: C. albicans MFC): 31.2 µg/mL; MIC (A. fumigatus; Aspergillus fumigatus, 168 h; 7 d at 25 ± 2 °C; read-out: A. fumigatus MIC): 15.6 µg/mL; MFC (A. fumigatus; Aspergillus fumigatus; read-out: A. fumigatus MFC): 125 µg/mL; IC50 (fungal strains): 7.81 to 15.6 µg/mL"
"CC[C@@]1(O)C(=O)OCc2c1cc1n(c2=O)Cc2cc3ccccc3nc2-1 [Std, camptothecin, reference compound]",–,–,–,–,–,–,–,–,–,–,–,–,–,–,–,–,–,–,–,8.7,HEK IC50 [4]: 9.0 [28] µg ml^−1
